“And” between values parts separate entries of the source, which are not always exact repeats. Equal entries are not always repeated. Where two headings read alike, the source gives them in different places.
Columns and labels:
[1] = system: human LDL receptor promoter; assay: in vitro Luciferase Activity Test (LDL receptor promoter-luciferase reporter in recombinant CHO cells); assay type: cell-based; parameters: MED: unit not given here; conditions: for Emax: Homo sapiens, CHO, read-out: MA%; for MED: minimum effective dose (molar concentration, unit not given), tests using 30% luciferase activity cutoff point (footnote 1), 24 hr, assay medium with 0.5 µg/ml 25-hydroxycholesterol; for RED: relative effective dose compared to compound of Example 4, below one = more active
How it was run: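 Stably transfected CHO clone S27/B30 carries the 1546 bp human LDL receptor promoter driving firefly luciferase; an SV40 promoter-luciferase CHO line serves as nonspecific-transcription control. Assay medium is DMEM/Ham's F-12 (3:1) with 20 mM HEPES, 0.5% bovine albumin and 0.5 µg/ml 25-hydroxycholesterol.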

Syrian Golden hamsters = assay: In vivo serum cholesterol lowering in hamsters fed a cholesterol test diet; conditions: hamsters; for inhibition in vivo at 100 mg/kg/day: Mesocricetus auratus, feed or water, 168 h, 0.2% (w/w) in diet for one week (100 mg/kg/day), negative values = serum cholesterol increased relative to control, read-out: Percent Lowering of Cholesterol from Control Value Mean; for Serum Cholesterol Mean: 0.2% (w/w) in Cholesterol Test Diet for one week, equivalent to 100 mg/kg/day, groups of six, control mean 337
Description: Syrian Golden hamsters were fed a cholesterol test diet made of 10% coconut oil and 0.12% cholesterol (by weight) in Purina 5001 Rodent Chow to induce hypercholesteriolemia.
After two weeks on the cholesterol test diet the hamsters were bled from the orbital sinium under light CO2 anesthesia. Serum was prepared and analyzed for cholesterol using a commercial test kit (Cholesterol High Performance, Single Vial™, product of Boehringer Mannheim Corp., Indianapolis, IN, USA). The hamsters were separated into groups of six animals, such that each group had approximately the same mean serum cholesterol levels. Selected compounds of the invention were incorporated into the Cholesterol Test Diet at 0.2% (w/w) and fed to the hamsters for one week. A control group of hamsters continued on the Cholesterol Test Diet during the same one-week period. The dose of test compounds of the invention was equivalent to 100 mg/kg/day based on the weight of the hamsters and their diet consumption. Upon completion of the test period, the animals were bled and serum cholesterol determined as above.
Mean serum cholesterol values from the test hamsters were compared to values from the control group and tested for significance at the Z.05 level using Dunnett's test.

African green monkeys = assay: Monkey pilot study of plasma cholesterol levels on a hypercholesterolemic diet; assay type: in vivo; conditions: for Plasma Cholesterol Levels, individual animals: animals 1-6; for Plasma Cholesterol Levels, Mean: mean of six animals
Description: To study the effect in short term lowering of plasma cholesterol concentrations in African green monkeys.
Six African green monkeys were given a hypercholesterolemic diet containing 16.4% lard and 0.33% cholesterol for two weeks to establish a baseline cholesterol level. Thereafter, two daily doses of [14a,5a]-4-(2-propenyl)cholestan-3a-ol, the compound of Example 5, were administered in their feed at 25 mg/kg/day total daily dosage. After ten days the drug dose was increased to 50 mg/kg/day for an additional 3 weeks, followed by a washout period when no drug was administered and the hypercholesterolemic diet was maintained. Blood samples were drawn on the days indicated and plasma was prepared foranalysis. Cholesterol was determined by standard enzymatic techniques(method of Allain et aI., using diagnostics high performance Cholesterol Reagent No. 236691, product of Boehringer Mannheim Co., Indianapolis, Indiana USA).

[2] = maximum activity (%) over control, 15% luciferase activity cutoff point (footnote 2)
[3] = maximum activity (%) over control, NA is not active, 30% luciferase activity cutoff point (footnote 1)
[4] = 30% luciferase activity cutoff point (footnote 1)

C=CC[C@@H]1[C@H](O)CC[C@@]2(C)[C@H]1CC[C@@H]1[C@@H]2CC[C@]2(C)[C@@H]([C@H](C)CCCC(C)C)CC[C@@H]12 [Example 5, [4a,5a]-4-(2-propenyl)cholestan-3a-ol]
Emax [1, 2]: 121% | MA% [1, 2]: 120% and 135% | inhibition in vivo at 100 mg/kg/day (Syrian Golden hamsters): 49.2% | Serum Cholesterol Mean (Syrian Golden hamsters; listed as (2)): 171 mg/dL | Plasma Cholesterol Levels, individual animals (African green monkeys; Day 4, dose 50 mg/kg/day in feed, 50 mg/kg/day): 184 and 878 and 155 and 159 and 148 and 211 | Plasma Cholesterol Levels, Mean (African green monkeys; Day 4, dose 50 mg/kg/day): 205 | Plasma Cholesterol Levels, individual animals (African green monkeys; Day 5, dose 25 mg/kg/day in feed, 25 mg/kg/day): 268 and 411 and 175 and 182 and 189 and 252 | Plasma Cholesterol Levels, Mean (African green monkeys; Day 5, dose 25 mg/kg/day, Day 0 mean 252): 244 | Plasma Cholesterol Levels, individual animals (African green monkeys; Day 7 Washout (no drug, diet maintained)): 209 and 251 and 165 and 192 and 174 and 200 | Plasma Cholesterol Levels, Mean (African green monkeys; Day 7 Washout): 199 | Plasma Cholesterol Levels, individual animals (African green monkeys; Day 8, dose 25 mg/kg/day in feed, 25 mg/kg/day): 208 and 386 and 172 and 184 and 174 and 249 | Plasma Cholesterol Levels, Mean (African green monkeys; Day 8, dose 25 mg/kg/day): 226 | Plasma Cholesterol Levels, Mean (African green monkeys; Day 12 (50 mg/kg/day per method)): 190 | Plasma Cholesterol Levels, individual animals (African green monkeys; Day 12 (dose not given; 50 mg/kg/day per method), 50 mg/kg/day): 172 and 276 and 159 and 169 and 157 and 206 | Plasma Cholesterol Levels, individual animals (African green monkeys; Day 14 Washout (no drug, diet maintained)): 226 and 311 and 176 and 159 and 173 and 213 | Plasma Cholesterol Levels, Mean (African green monkeys; Day 14 Washout): 210 | Plasma Cholesterol Levels, Mean (African green monkeys; Day 20 (50 mg/kg/day per method)): 192 | Plasma Cholesterol Levels, individual animals (African green monkeys; Day 20 (dose not given; 50 mg/kg/day per method), 50 mg/kg/day): 188 and 314 and 143 and 161 and 142 and 206 | Plasma Cholesterol Levels, individual animals (African green monkeys; Day 21 Washout (no drug, diet maintained)): 270 and 344 and 193 and 168 and 216 and 246 | Plasma Cholesterol Levels, Mean (African green monkeys; Day 21 Washout): 240 | lowering plasma cholesterol levels (African green monkeys; conclusion of the pilot study, 25 then 50 mg/kg/day in feed): effective in lowering plasma cholesterol levels

C=CC[C@@H]1[C@H](NC(C)=O)CC[C@@]2(C)[C@H]1CC[C@@H]1[C@@H]2CC[C@]2(C)[C@@H]([C@H](C)CCCC(C)C)CC[C@@H]12 [Example 81, N-[(3α,4α,5α,20β)-4-(2-propenyl)cholestan-3-61]acetamide]
Emax [1, 3]: 32% | MED [1]: 44.9 | RED [1, 4]: 7.9 | inhibition in vivo at 100 mg/kg/day (Syrian Golden hamsters): -7.8% | Serum Cholesterol Mean (Syrian Golden hamsters): 364 mg/dL

C=CC[C@@H]1[C@H](N)CC[C@@]2(C)[C@H]1CC[C@@H]1[C@@H]2CC[C@]2(C)[C@@H]([C@H](C)CCCC(C)C)CC[C@@H]12 [Example 86]
Emax [1, 3]: 89% | MED [1]: 5.6 | RED [1, 4]: 2.0 | inhibition in vivo at 100 mg/kg/day (Syrian Golden hamsters): -37.4% | Serum Cholesterol Mean (Syrian Golden hamsters): 464 mg/dL

CCC[C@@H]1[C@H](O)CC[C@@]2(C)[C@H]1CC[C@@H]1[C@@H]2CC[C@]2(C)[C@@H]([C@H](C)CCCC(C)C)CC[C@@H]12 [Example 87]
Emax [1, 3]: 14% | MED [1]: 23.2 | RED [1, 4]: 8.3 | inhibition in vivo at 100 mg/kg/day (Syrian Golden hamsters): 31.2% | Serum Cholesterol Mean (Syrian Golden hamsters): 222 mg/dL
